According to ChEMBL document CHEMBL5137059, “An Intelligent Strategy with All-Atom Molecular Dynamics Simulations for the Design of Lipopeptides against Multidrug-Resistant Pseudomonas aeruginosa” (2022):
In brackets after ≈: the same amount, converted by molar mass. Positions of bridges follow the written chain, without caps; N, C: chain ends. Non-standard residues stand in square brackets, D forms with d. Residues, ends and D or L forms follow the SMILES beside them. *: point of attachment. Benzoyl(4-Ph) = O=C(c1ccc(-c2ccccc2)cc1)*; Bip = N[C@@H](Cc1ccc(-c2ccccc2)cc1)C(=O)O; dBip = N[C@H](Cc1ccc(-c2ccccc2)cc1)C(=O)O; dGly(nOct) = CCCCCCCC[C@@H](N)C(=O)O; Gly(octyl) = CCCCCCCC[C@H](N)C(=O)O; Octanoyl = CCCCCCCC(=O)*; Dab = NCC[C@H](N)C(=O)O; Bn = c1ccc(C*)cc1

Key:
Format in all cases: functional
Pseudomonas aeruginosa [1] = assay: Antimicrobial activity against polymyxin resistant Pseudomonas aeruginosa FADDI-PA070 assessed as microbial growth inhibition measured at 18 to 20 hrs by broth microdilution assay; details: time 18-20 hrs
Pseudomonas aeruginosa [2] = assay: Antimicrobial activity against polymyxin resistant Pseudomonas aeruginosa FADDI-PA060 assessed as microbial growth inhibition measured at 18 to 20 hrs by broth microdilution assay; details: time 18-20 hrs
Pseudomonas aeruginosa [3] = assay: Disruption of membrane integrity in polymyxin resistant Pseudomonas aeruginosa FADDI-071 assessed as fold increase by measuring cellular fluorescence intensity at 8 mg/L incubated for 4 hrs by DiBAC and PI staining based flow cytometry analysis
Pseudomonas aeruginosa [4] = assay: Antimicrobial activity against polymyxin resistant Pseudomonas aeruginosa FADDI-PA071 assessed as microbial growth inhibition measured after 20 hrs by CLSI-protocol based broth microdilution assay
Pseudomonas aeruginosa [5] = assay: Antimicrobial activity against Pseudomonas aeruginosa PAO1R assessed as microbial growth inhibition measured after 20 hrs by CLSI-protocol based broth microdilution assay
Pseudomonas aeruginosa [6] = assay: Antimicrobial activity against Pseudomonas aeruginosa PAO1 assessed as microbial growth inhibition measured after 20 hrs by CLSI-protocol based broth microdilution assay
Pseudomonas aeruginosa [7] = assay: Antimicrobial activity against polymyxin resistant Pseudomonas aeruginosa FADDI-PA065 assessed as microbial growth inhibition measured after 20 hrs by CLSI-protocol based broth microdilution assay
Pseudomonas aeruginosa [8] = assay: Antimicrobial activity against Pseudomonas aeruginosa PW7028 assessed as microbial growth inhibition measured after 20 hrs by CLSI-protocol based broth microdilution assay
Pseudomonas aeruginosa [9] = assay: Disruption of membrane integrity in polymyxin resistant Pseudomonas aeruginosa FADDI-PA065 assessed as fold increase by measuring cellular fluorescence intensity at 8 mg/L incubated for 4 hrs by DiBAC and PI staining based flow cytometry analysis

CCCCCCCC(=O)N[C@@H](CCN)C(=O)N[C@H](C(=O)N[C@@H](CCN)C(=O)N[C@H]1CCNC(=O)[C@H]([C@@H](C)O)NC(=O)[C@H](CCN)NC(=O)[C@H](CCN)NC(=O)[C@H](Cc2ccccc2)NC(=O)[C@@H](Cc2ccccc2)NC(=O)[C@H](CCN)NC1=O)[C@@H](C)O
MIC (Pseudomonas aeruginosa [1]): > 32 µg/mL | MIC (Pseudomonas aeruginosa [2]): > 32 µg/mL

CCCCCCCC[C@H]1NC(=O)[C@H](CCN)NC(=O)[C@@H](NC(=O)[C@H](CCN)NC(=O)[C@@H](NC(=O)[C@H](CCN)NC(=O)c2ccccc2)[C@@H](C)O)CCNC(=O)[C@H]([C@@H](C)O)NC(=O)[C@H](CCN)NC(=O)[C@H](CCN)NC(=O)[C@H](CC(C)C)NC1=O
MIC (Pseudomonas aeruginosa [1]): 32 µg/mL (≈ 26.9 µM) | MIC (Pseudomonas aeruginosa [2]): 32 µg/mL (≈ 26.9 µM)

CCCCCCCC(=O)N[C@@H](CCN)C(=O)N[C@H](C(=O)N[C@@H](CCN)C(=O)N[C@H]1CCNC(=O)[C@H]([C@@H](C)O)NC(=O)[C@H](CCN)NC(=O)[C@H](CCN)NC(=O)[C@H](CC(C)C)NC(=O)[C@@H](Cc2ccc(-c3ccccc3)cc2)NC(=O)[C@H](CCN)NC1=O)[C@@H](C)O (Octanoyl-[Dab]T[Dab][Dab][Dab][dBip]L[Dab][Dab]T; lactam 4-C)
MIC (Pseudomonas aeruginosa [1]): 4 µg/mL (≈ 3.16 µM) | MIC (Pseudomonas aeruginosa [2]): 8 µg/mL (≈ 6.32 µM)

CCCCCCCC(=O)N[C@@H](CCN)C(=O)N[C@H](C(=O)N[C@@H](CCN)C(=O)N[C@H]1CCNC(=O)[C@H]([C@@H](C)O)NC(=O)[C@H](CCN)NC(=O)[C@H](CCN)NC(=O)[C@H](CSCc2ccccc2)NC(=O)[C@@H](Cc2ccccc2)NC(=O)[C@H](CCN)NC1=O)[C@@H](C)O (Octanoyl-[Dab]T[Dab][Dab][Dab][dF]C(Bn)[Dab][Dab]T; lactam 4-C)
MIC (Pseudomonas aeruginosa [1]): > 32 µg/mL | MIC (Pseudomonas aeruginosa [2]): 32 µg/mL (≈ 25.2 µM)

CCCCCCCC(=O)N[C@@H](CCN)C(=O)N[C@H](C(=O)N[C@@H](CCN)C(=O)N[C@H]1CCNC(=O)[C@H]([C@@H](C)O)NC(=O)[C@H](CCN)NC(=O)[C@H](CCN)NC(=O)[C@H](Cc2ccc(-c3ccccc3)cc2)NC(=O)[C@@H](Cc2ccccc2)NC(=O)[C@H](CCN)NC1=O)[C@@H](C)O (Octanoyl-[Dab]T[Dab][Dab][Dab][dF][Bip][Dab][Dab]T; lactam 4-C)
MIC (Pseudomonas aeruginosa [1]): 4 µg/mL (≈ 3.08 µM) | MIC (Pseudomonas aeruginosa [2]): 8 µg/mL (≈ 6.16 µM)

CCCCCCCC[C@@H]1NC(=O)[C@@H](Cc2ccccc2)NC(=O)[C@H](CCN)NC(=O)[C@@H](NC(=O)[C@H](CCN)NC(=O)[C@@H](NC(=O)[C@H](CCN)NC(=O)CCCCCCC)[C@@H](C)O)CCNC(=O)[C@H]([C@@H](C)O)NC(=O)[C@H](CCN)NC(=O)[C@H](CCN)NC1=O (Octanoyl-[Dab]T[Dab][Dab][Dab][dF][Gly(octyl)][Dab][Dab]T; lactam 4-C)
fold change (FC) (Pseudomonas aeruginosa [3]): 19.6 | MIC (Pseudomonas aeruginosa [1]): 4 µg/mL (≈ 3.21 µM) | MIC (Pseudomonas aeruginosa [4]): 4 µg/mL (≈ 3.21 µM) | MIC (Pseudomonas aeruginosa [5]): 8 µg/mL (≈ 6.42 µM) | MIC (Pseudomonas aeruginosa [2]): 2 µg/mL (≈ 1.61 µM) | MIC (Pseudomonas aeruginosa [6]): 4 µg/mL (≈ 3.21 µM) | MIC (Pseudomonas aeruginosa [7]): 1 µg/mL (≈ 0.803 µM) | MIC (Pseudomonas aeruginosa [8]): 2 µg/mL (≈ 1.61 µM) | fold change (FC) (Pseudomonas aeruginosa [9]): 19.6

CCCCCCCC[C@H]1NC(=O)[C@H](CCN)NC(=O)[C@@H](NC(=O)[C@H](CCN)NC(=O)[C@@H](NC(=O)[C@H](CCN)NC(=O)CCCCCCC)[C@@H](C)O)CCNC(=O)[C@H]([C@@H](C)O)NC(=O)[C@H](CCN)NC(=O)[C@H](CCN)NC(=O)[C@H](CC(C)C)NC1=O (Octanoyl-[Dab]T[Dab][Dab][Dab][dGly(nOct)]L[Dab][Dab]T; lactam 4-C)
fold change (FC) (Pseudomonas aeruginosa [3]): 18.8 | MIC (Pseudomonas aeruginosa [1]): 2 µg/mL (≈ 1.65 µM) | MIC (Pseudomonas aeruginosa [4]): 4 µg/mL (≈ 3.3 µM) | MIC (Pseudomonas aeruginosa [5]): 8 µg/mL (≈ 6.6 µM) | MIC (Pseudomonas aeruginosa [2]): 2 µg/mL (≈ 1.65 µM) | MIC (Pseudomonas aeruginosa [6]): 4 µg/mL (≈ 3.3 µM) | MIC (Pseudomonas aeruginosa [7]): 2 µg/mL (≈ 1.65 µM) | MIC (Pseudomonas aeruginosa [8]): 4 µg/mL (≈ 3.3 µM) | fold change (FC) (Pseudomonas aeruginosa [9]): 18.8

C[C@@H](O)[C@@H]1NC(=O)[C@H](CCN)NC(=O)[C@H](CCN)NC(=O)[C@H](Cc2ccc(-c3ccccc3)cc2)NC(=O)[C@@H](Cc2ccccc2)NC(=O)[C@H](CCN)NC(=O)[C@@H](NC(=O)[C@H](CCN)NC(=O)[C@@H](NC(=O)[C@H](CCN)NC(=O)c2ccc(-c3ccccc3)cc2)[C@@H](C)O)CCNC1=O ({Benzoyl(4-Ph)}-[Dab]T[Dab][Dab][Dab][dF][Bip][Dab][Dab]T; lactam 4-C)
MIC (Pseudomonas aeruginosa [1]): 16 µg/mL (≈ 11.8 µM) | MIC (Pseudomonas aeruginosa [2]): 8 µg/mL (≈ 5.91 µM)

COLISTIN
fold change (FC) (Pseudomonas aeruginosa [3]): 2.33 | MIC (Pseudomonas aeruginosa [1]): > 128 µg/mL | MIC (Pseudomonas aeruginosa [4]): > 128 µg/mL | MIC (Pseudomonas aeruginosa [5]): > 32 µg/mL | MIC (Pseudomonas aeruginosa [2]): > 128 µg/mL | MIC (Pseudomonas aeruginosa [6]): 2 µg/mL | MIC (Pseudomonas aeruginosa [7]): > 128 µg/mL | MIC (Pseudomonas aeruginosa [8]): 1 µg/mL | fold change (FC) (Pseudomonas aeruginosa [9]): 2.33
